Details: in water

O=S(=O)([O-])c1ccc(Nc2nc(Nc3ccc(/C=C/c4ccc(Nc5nc(Nc6ccc(S(=O)(=O)[O-])cc6)nc(N6CCOCC6)n5)cc4S(=O)(=O)[O-])c(S(=O)(=O)[O-])c3)nc(N3CCOCC3)n2)cc1.[Na+].[Na+].[Na+].[Na+]
Details	solubility (mole fraction)
273.15 K	0.00029
278.45 K	0.000399
283.35 K	0.000545
288.75 K	0.000757
293.25 K	0.00099
298.75 K	0.00137
303.15 K	0.00179
307.55 K	0.00219
310.75 K	0.00264
313.95 K	0.00319
